Read-outs that look alike come from different tables or passages of the source.

This data set deals with T1, plasmin (Homo sapiens, UniProt P00747).
T1 construct: Tissue plasminogen factor (tPA), which generates plasmin from plasminogen
Briefly: In vitro plasmin stability assay. Format: in vitro ADME. How it is done:
At selected time points during the incubation, the ligands were extracted from 80 μL of assay matrix by treatment with 80 μL of 50% acetonitrile (ACN). The samples were filtered and analysed by UPLC to determine the amount of ligand remaining. LC-MS analysis was performed to confirm ligand integrity and identify cleavage sites.

Setting [1] is: isolated enzyme plasmin, read-out: T1/2.

T1 sequence (P00747 581-810 limits assumed, species assumed): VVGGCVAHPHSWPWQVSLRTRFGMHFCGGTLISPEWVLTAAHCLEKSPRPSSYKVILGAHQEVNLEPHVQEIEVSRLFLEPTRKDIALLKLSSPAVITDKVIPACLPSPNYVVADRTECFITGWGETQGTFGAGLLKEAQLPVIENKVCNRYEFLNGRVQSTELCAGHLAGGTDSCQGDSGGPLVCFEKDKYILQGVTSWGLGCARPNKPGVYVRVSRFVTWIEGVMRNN
T1 sequence (P00747 97-580 partner limits assumed, species assumed): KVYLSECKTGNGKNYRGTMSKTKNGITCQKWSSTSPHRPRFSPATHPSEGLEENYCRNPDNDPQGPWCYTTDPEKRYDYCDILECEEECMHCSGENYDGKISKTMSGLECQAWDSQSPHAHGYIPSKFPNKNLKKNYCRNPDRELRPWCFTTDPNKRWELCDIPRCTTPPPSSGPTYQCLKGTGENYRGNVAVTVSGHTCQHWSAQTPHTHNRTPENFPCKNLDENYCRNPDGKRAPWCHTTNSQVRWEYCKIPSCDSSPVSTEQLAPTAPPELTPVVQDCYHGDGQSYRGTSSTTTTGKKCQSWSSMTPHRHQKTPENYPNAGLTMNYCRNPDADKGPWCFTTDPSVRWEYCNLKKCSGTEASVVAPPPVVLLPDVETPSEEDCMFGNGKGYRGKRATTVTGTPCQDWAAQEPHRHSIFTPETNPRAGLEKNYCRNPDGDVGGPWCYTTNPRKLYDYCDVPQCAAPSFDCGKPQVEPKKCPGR

With `CC[C@H](C)[C@H](NC(=O)CCOCCOCCN(CCOCCOCCC(=O)N[C@H](C(=O)N[C@@H](CCC(=O)O)C(=O)N[C@H](C(=O)N[C@@H](CC(=O)O)C(=O)N[C@H](C(=O)O)C(C)C)[C@@H](C)O)[C@@H](C)CC)C(=O)[C@H](CCCNC(=N)N)NC(=O)[C@H](CCCNC(=N)N)NC(=O)[C@H](CCCNC(=N)N)NC(=O)[C@H](CCC(N)=O)NC(=O)[C@H](CCCNC(=N)N)NC(=O)[C@H](CCCNC(=N)N)NC(=O)[C@H](CCCCN)NC(=O)[C@H](CCCCN)NC(=O)[C@H](CCCNC(=N)N)NC(=O)CNC(=O)[C@H](Cc1ccc(O)cc1)NC(C)=O)C(=O)N[C@@H](CCC(=O)O)C(=O)N[C@H](C(=O)N[C@@H](CC(=O)O)C(=O)N[C@H](C(=O)O)C(C)C)[C@@H](C)O` [Compound 9], the half-life by setting is: under setting [1], 3.82 ± 2.15 h; (read-out: T1/2) 3.82 ± 2.15 h.
Regarding `CC(=O)N[C@@H](CCCNC(=N)N)C(=O)N[C@@H](CCCNC(=N)N)C(=O)N[C@@H](CCCNC(=N)N)C(=O)N[C@@H](CCCNC(=N)N)C(=O)N[C@@H](CCCNC(=N)N)C(=O)N[C@@H](CCCNC(=N)N)C(=O)N[C@@H](CCCNC(=N)N)C(=O)N[C@@H](CCCNC(=N)N)C(=O)N[C@@H](CCCNC(=N)N)C(=O)N(CCOCCOCCC(=O)N[C@@H](CCCCN)C(=O)N[C@@H](CCC(=O)O)C(=O)N[C@H](C(=O)N[C@H](C(=O)N[C@H](C(=O)O)C(C)C)[C@@H](C)O)[C@@H](C)O)CCOCCOCCC(=O)N[C@@H](CCCCN)C(=O)N[C@@H](CCC(=O)O)C(=O)N[C@H](C(=O)N[C@H](C(=O)N[C@H](C(=O)O)C(C)C)[C@@H](C)O)[C@@H](C)O` [Compound 25], the half-life at 100 μM (isolated enzyme plasmin) turned out to be 19.2 ± 3.38 h.
The same measure, in the same setting: then `CC(=O)N[C@@H](CCCNC(=N)N)C(=O)N[C@@H](CCCNC(=N)N)C(=O)N[C@@H](CCCNC(=N)N)C(=O)N[C@@H](CCCNC(=N)N)C(=O)N[C@@H](CCCNC(=N)N)C(=O)N[C@@H](CCCNC(=N)N)C(=O)N[C@@H](CCCNC(=N)N)C(=O)N[C@@H](CCCNC(=N)N)C(=O)N[C@@H](CCCNC(=N)N)C(=O)N(CCOCCOCCC(=O)N[C@@H](CCCCN)C(=O)N[C@@H](CCC(=O)O)C(=O)N[C@H](C(=O)N[C@H](C(=O)N[C@H](C(=O)O)C(C)C)C(C)C)[C@@H](C)O)CCOCCOCCC(=O)N[C@@H](CCCCN)C(=O)N[C@@H](CCC(=O)O)C(=O)N[C@H](C(=O)N[C@H](C(=O)N[C@H](C(=O)O)C(C)C)C(C)C)[C@@H](C)O` [Compound 27], with 25.5 ± 9.63 h; and `CC(=O)N[C@@H](CCCNC(=N)N)C(=O)N[C@@H](CCCNC(=N)N)C(=O)N[C@@H](CCCNC(=N)N)C(=O)N[C@@H](CCCNC(=N)N)C(=O)N[C@@H](CCCNC(=N)N)C(=O)N[C@@H](CCCNC(=N)N)C(=O)N[C@@H](CCCNC(=N)N)C(=O)N[C@@H](CCCNC(=N)N)C(=O)N[C@@H](CCCNC(=N)N)C(=O)N(CCOCCOCCC(=O)N[C@@H](CCCCN)C(=O)N[C@@H](CCC(=O)O)C(=O)N[C@H](C(=O)N[C@@H](CCCNC(=N)N)C(=O)N[C@H](C(=O)O)C(C)C)[C@@H](C)O)CCOCCOCCC(=O)N[C@@H](CCCCN)C(=O)N[C@@H](CCC(=O)O)C(=O)N[C@H](C(=O)N[C@@H](CCCNC(=N)N)C(=O)N[C@H](C(=O)O)C(C)C)[C@@H](C)O` [Compound 29], with 16.7 ± 2.85 h; and `CC[C@H](C)[C@H](NC(=O)CCOCCOCCN(CCOCCOCCC(=O)N[C@H](C(=O)N[C@@H](CO)C(=O)N[C@H](C(=O)N[C@@H](CC(=O)O)C(=O)N[C@H](C(=O)O)C(C)C)[C@@H](C)O)[C@@H](C)CC)C(=O)[C@H](CCCNC(=N)N)NC(=O)[C@H](CCCNC(=N)N)NC(=O)[C@H](CCCNC(=N)N)NC(=O)[C@H](CCCNC(=N)N)NC(=O)[C@H](CCCNC(=N)N)NC(=O)[C@H](CCCNC(=N)N)NC(=O)[C@H](CCCNC(=N)N)NC(=O)[C@H](CCCNC(=N)N)NC(=O)[C@H](CCCNC(=N)N)NC(C)=O)C(=O)N[C@@H](CO)C(=O)N[C@H](C(=O)N[C@@H](CC(=O)O)C(=O)N[C@H](C(=O)O)C(C)C)[C@@H](C)O` [Compound 31], with 23.4 ± 2.07 h.
On the same count and under the same terms, then `CC(=O)N[C@@H](CCCNC(=N)N)C(=O)N[C@@H](CCCNC(=N)N)C(=O)N[C@@H](CCCNC(=N)N)C(=O)N[C@@H](CCCNC(=N)N)C(=O)N[C@@H](CCCNC(=N)N)C(=O)N[C@@H](CCCNC(=N)N)C(=O)N[C@@H](CCCNC(=N)N)C(=O)N[C@@H](CCCNC(=N)N)C(=O)N[C@@H](CCCNC(=N)N)C(=O)N(CCOCCOCCC(=O)N[C@H](C(=O)N[C@@H](CCC(=O)O)C(=O)N[C@H](C(=O)N[C@H](C(=O)N[C@H](C(=O)O)C(C)C)C(C)C)[C@@H](C)O)C(C)C)CCOCCOCCC(=O)N[C@H](C(=O)N[C@@H](CCC(=O)O)C(=O)N[C@H](C(=O)N[C@H](C(=O)N[C@H](C(=O)O)C(C)C)C(C)C)[C@@H](C)O)C(C)C` [Compound 33], with 7.98 ± 1.28 h.
For the compound `CC[C@H](C)[C@H](NC(=O)CCOCCOCCN(CCOCCOCCC(=O)N[C@H](C(=O)N[C@@H](CCC(=O)O)C(=O)N[C@H](C(=O)N[C@@H](CC(=O)O)C(=O)N[C@H](C(=O)O)C(C)C)[C@@H](C)O)[C@@H](C)CC)C(=O)[C@@H](CCCNC(=N)N)NC(=O)[C@@H](CCCNC(=N)N)NC(=O)[C@@H](CCCNC(=N)N)NC(=O)[C@@H](CCC(N)=O)NC(=O)[C@@H](CCCNC(=N)N)NC(=O)[C@@H](CCCNC(=N)N)NC(=O)[C@@H](CCCCN)NC(=O)[C@@H](CCCCN)NC(=O)[C@@H](CCCNC(=N)N)NC(=O)CNC(=O)[C@@H](Cc1ccc(O)cc1)NC(C)=O)C(=O)N[C@@H](CCC(=O)O)C(=O)N[C@H](C(=O)N[C@@H](CC(=O)O)C(=O)N[C@H](C(=O)O)C(C)C)[C@@H](C)O` [Compound 38], the half-life under setting [1] is 24 h.
`CC[C@H](C)[C@H](NC(=O)CCOCCOCCN(CCOCCOCCC(=O)N[C@H](C(=O)N[C@@H](CCC(=O)O)C(=O)N[C@H](C(=O)N[C@@H](CC(=O)O)C(=O)N[C@H](C(=O)O)C(C)C)[C@@H](C)O)[C@@H](C)CC)C(=O)[C@@H](CCCNC(=N)N)NC(=O)[C@H](CCCNC(=N)N)NC(=O)[C@@H](CCCCN)NC(=O)[C@H](CCCCN)NC(=O)[C@@H](CCCNC(=N)N)NC(=O)CNC(=O)[C@@H](CCCNC(=N)N)NC(=O)[C@H](CCCNC(=N)N)NC(=O)[C@@H](CCCNC(=N)N)NC(C)=O)C(=O)N[C@@H](CCC(=O)O)C(=O)N[C@H](C(=O)N[C@@H](CC(=O)O)C(=O)N[C@H](C(=O)O)C(C)C)[C@@H](C)O` [Compound 40] yielded a half-life at 100 μM (isolated enzyme plasmin) of 24 h.
`CC[C@H](C)[C@H](NC(=O)CCOCCOCCN(CCOCCOCCC(=O)N[C@H](C(=O)N[C@@H](CCC(=O)O)C(=O)N[C@H](C(=O)N[C@@H](CC(=O)O)C(=O)N[C@H](C(=O)O)C(C)C)[C@@H](C)O)[C@@H](C)CC)C(=O)[C@@H](CCCNC(=N)N)NC(=O)[C@@H](CCCNC(=N)N)NC(=O)[C@@H](CCCNC(=N)N)NC(=O)[C@@H](CCCNC(=N)N)NC(=O)[C@@H](CCCNC(=N)N)NC(=O)[C@@H](CCCNC(=N)N)NC(=O)[C@@H](CCCNC(=N)N)NC(=O)[C@@H](CCCNC(=N)N)NC(=O)[C@@H](CCCNC(=N)N)NC(C)=O)C(=O)N[C@@H](CCC(=O)O)C(=O)N[C@H](C(=O)N[C@@H](CC(=O)O)C(=O)N[C@H](C(=O)O)C(C)C)[C@@H](C)O` [Compound 44] showed a half-life at 100 μM (isolated enzyme plasmin) of 24 h.
Turning to `CC[C@H](C)[C@H](NC(=O)CCOCCOCCN(CCOCCOCCC(=O)N[C@H](C(=O)N[C@@H](CCC(=O)O)C(=O)N[C@H](C(=O)N[C@@H](CC(=O)O)C(=O)N[C@H](C(=O)O)C(C)C)[C@@H](C)O)[C@@H](C)CC)C(=O)[C@H](CCCCN)NC(=O)[C@H](CCCCN)NC(=O)[C@H](Cc1c[nH]c2ccccc12)NC(=O)[C@H](CCCCN)NC(=O)[C@H](CCSC)NC(=O)[C@H](CCCNC(=N)N)NC(=O)[C@H](CCCNC(=N)N)NC(=O)[C@H](CC(N)=O)NC(=O)[C@H](CCC(N)=O)NC(=O)[C@H](Cc1ccccc1)NC(=O)[C@H](Cc1c[nH]c2ccccc12)NC(=O)[C@@H](NC(=O)[C@H](CCCCN)NC(=O)[C@@H](NC(=O)[C@H](CCC(N)=O)NC(=O)[C@H](CCCNC(=N)N)NC(C)=O)[C@@H](C)CC)[C@@H](C)CC)C(=O)N[C@@H](CCC(=O)O)C(=O)N[C@H](C(=O)N[C@@H](CC(=O)O)C(=O)N[C@H](C(=O)O)C(C)C)[C@@H](C)O` [Compound 46], the half-life (isolated enzyme plasmin) was 1.57 ± 0.133 h.
Consider `CC[C@@H](C)[C@@H](NC(=O)[C@@H](CCCCN)NC(=O)[C@H](NC(=O)[C@@H](CCC(N)=O)NC(=O)[C@@H](CCCNC(=N)N)NC(C)=O)[C@H](C)CC)C(=O)N[C@H](Cc1c[nH]c2ccccc12)C(=O)N[C@H](Cc1ccccc1)C(=O)N[C@H](CCC(N)=O)C(=O)N[C@H](CC(N)=O)C(=O)N[C@H](CCCNC(=N)N)C(=O)N[C@H](CCCNC(=N)N)C(=O)N[C@H](CCSC)C(=O)N[C@H](CCCCN)C(=O)N[C@H](Cc1c[nH]c2ccccc12)C(=O)N[C@H](CCCCN)C(=O)N[C@H](CCCCN)C(=O)N(CCOCCOCCC(=O)N[C@H](C(=O)N[C@@H](CCC(=O)O)C(=O)N[C@H](C(=O)N[C@@H](CC(=O)O)C(=O)N[C@H](C(=O)O)C(C)C)[C@@H](C)O)[C@@H](C)CC)CCOCCOCCC(=O)N[C@H](C(=O)N[C@@H](CCC(=O)O)C(=O)N[C@H](C(=O)N[C@@H](CC(=O)O)C(=O)N[C@H](C(=O)O)C(C)C)[C@@H](C)O)[C@@H](C)CC` [Compound 48], for which the half-life under setting [1] is 24 h.
On to `CC[C@H](C)[C@H](NC(=O)CCOCCOCCN(CCOCCOCCC(=O)N[C@H](C(=O)N[C@@H](CCC(=O)O)C(=O)N[C@H](C(=O)N[C@@H](CC(=O)O)C(=O)N[C@H](C(=O)O)C(C)C)[C@@H](C)O)[C@@H](C)CC)C(=O)[C@H](CO)NC(=O)[C@H](CCC(=O)O)NC(=O)[C@H](CCCNC(=N)N)NC(=O)[C@H](CCCNC(=N)N)NC(=O)[C@H](CCCNC(=N)N)NC(=O)[C@H](CCCCN)NC(=O)[C@H](CCCCN)NC(=O)[C@H](CCCNC(=N)N)NC(=O)[C@H](CO)NC(=O)[C@H](CCC(=O)O)NC(=O)[C@H](CCCNC(=N)N)NC(=O)[C@H](CCCNC(=N)N)NC(=O)[C@H](CCCNC(=N)N)NC(=O)[C@H](CCCCN)NC(=O)[C@H](CCCCN)NC(=O)[C@H](CCCNC(=N)N)NC(C)=O)C(=O)N[C@@H](CCC(=O)O)C(=O)N[C@H](C(=O)N[C@@H](CC(=O)O)C(=O)N[C@H](C(=O)O)C(C)C)[C@@H](C)O` [Compound 50], for which the half-life at 100 μM (isolated enzyme plasmin) was 2.82 ± 0.333 h.

Values taken from patent US20240245793A1, “PSD-95 INHIBITORS AND USES THEREOF” (priority 2021, published 2024).
